Experimental data as given in patent US20250099458A1, “USE OF ANTI-IDIOPATHIC PULMONARY FIBROSIS DRUG NINTEDANIB IN TREATMENT OF TUBERCULOSIS” (Beijing Chest Hospital, Capital Medical University, priority 2022, published 2025).

What was measured:
[1] = system: H37Rv in J774A.1 macrophages; assay: Macrophage intracellular bactericidal activity; format: cell-based, Mycobacterium tuberculosis; details: for CFU / log10 CFU: J774A.1, 72 h
Experimental: The macrophage intracellular bactericidal activity is used to evaluate the anti-tuberculosis activities of BIBF1120 alone and BIBF1120+RFP in combination. The specific operating method includes: collecting J774A.1 macrophages into a 50 ml centrifuge tube, and taking 100 μl of macrophages and 900 μl of a cell culture medium, which are added into a 1.5 ml sterile centrifuge tube for 10-fold dilution; counting under a microscope; diluting macrophages to 4*10^5/ml and gently plating the macrophages into a 48-well clear microwell plate, with 1 ml in each well; culturing in an incubator with 5% of CO2 at 37° C. for 24 h after plating; co-culturing MOI=5:1 and 2*10^6 CFU/MLH37Rv with the macrophages; rinsing 2 times with sterile PBS 4 h later to remove extracellular Mycobacterium tuberculosis, and adding a new RPMI cell culture medium; putting into an incubator with 5% of CO2 at 37° C. and culturing for 72 h. discarding RPMI in the 48-well plate 3 days later, adding 200 μl of 0.1% SDS and placing in the incubator for 5 to 10 min, and adding 800 μl of the cell culture medium into each well and mixing well; and after cell lysis, taking 100 μl from each well for 10-, 100-, 1000-, 100000-fold dilution, and inoculating 100 μl on a 7H10 solid medium, spreading it evenly with a spreader and counting CFUs three weeks later.

H37Rv strain = assay: In vitro activity on Mycobacterium tuberculosis (Alamar Blue MIC); format: cell-based; details: H37Rv standard strain, 7H9 medium, 37° C. 7 d, Alamar Blue 24 h
[2] = system: pulmonary and splenic Mycobacterium tuberculosis (H37Rv strain); format: in vivo, C57BL/6 female mice; details: after 8 weeks of administration; BIBF1120 added to HRZ

## CO[C@H]1/C=C/O[C@@]2(C)Oc3c(C)c(O)c4c(O)c(c(/C=N/N5CCN(C)CC5)c(O)c4c3C2=O)NC(=O)/C(C)=C\C=C\[C@H](C)[C@H](O)[C@@H](C)[C@@H](O)[C@@H](C)[C@H](OC(C)=O)[C@@H]1C [RFP, rifampicin]
[1]; Table 1, RFP 2 ug/ml
  CFU: 502500
  log10 CFU: 5.701
[1]; Table 2, RFP 2 ug/ml
  CFU: 202500
  log10 CFU: 5.306

## CCS(=O)(=O)O.COC(=O)c1ccc2c(c1)NC(=O)/C2=C(\Nc1ccc(N(C)C(=O)CN2CCN(C)CC2)cc1)c1ccccc1 [BIBF1120, Nintedanib]
H37Rv strain
  MIC: 24.6 µg/mL
[1]; BIBF1120 alone, 25 ug/ml
  bacteriostatic effect administered alone: no significant bacteriostatic effect
[1]; Table 1, BIBF1120 12.5 ug/ml
  CFU: 2400000
  log10 CFU: 6.380
[1]; Table 1, BIBF1120 25 ug/ml
  CFU: 1462500
  log10 CFU: 6.165
[1]; Table 1, BIBF1120 50 ug/ml
  CFU: 1077500
  log10 CFU: 6.032
[1]; Table 2, BIBF1120 25 ug/ml
  CFU: 2750000
  log10 CFU: 6.439
[2]
  sterilizing of the spleen and the lung: achieves sterilizing of the spleen and the lung
